Laboratory results reported in patent US10000487B2, “Heterocyclic compounds that inhibit the kinase activity of Mnk useful for treating various cancers” (eFFECTOR Therapeutics, Inc., priority 2015, dated 2018).
Blank lines part the entries; values can stand above or below the compound they belong to.

How the values were obtained:
recombinant MNK1 = recombinant MNK1 (Homo sapiens (Human), UniProt Q9BUB5); test: MNK biochemical enzymatic assay (ADP-Glo), MNK1; parameters: key to MNK1 IC50: IC50 values of less than 0.01 μM are labelled as “+++”; from 0.01 to 0.10 μM are labelled as “++”; from 0.1 to 10 μM are labelled as “+”; Inactive: greater than 10 μM are labelled inactive; conditions: 10 nM MNK1, 300 μM ATP
Procedure: (§1) Compounds are screened for MNK inhibition using the ADP-Glo kinase assay kit (Promega, catalogue No. V9101). All kinase reactions are performed in Reaction Buffer E (15 mM HEPES pH7.4, 20 mM NaCl, 1 mM EGTA, 10 mM MgCl2, 0.1 mg/ml BGG, and 0.02% Tween-20). Final MNK1 reactions contained 10 nM recombinant MNK1 (Life Technologies, PR9138A), 100 μM MNK substrate peptide Ac-TATKSGSTTKNR-NH2 (American Peptide Company), 300 μM ATP, and varying concentrations of the inhibitory compound of interest. Final MNK2 reactions contained 3 nM recombinant MNK2 (Life Technologies, PV5607), 50 μM MNK substrate peptide Ac-TATKSGSTTKNR-NH2 (American Peptide Company), 10 μM ATP, and varying concentrations of the inhibitory compound of interest. Final DMSO concentration in each reaction is 1%.
(§2) Kinase reactions are carried out in 96-well half-area white flat-bottom polystyrene plates in a final volume of 25 μl. MNK1/2 enzymes are pre-incubated with compound and peptide substrate for 5 minutes prior to the addition of ATP. After the addition of ATP, kinase reactions are incubated at room temperature for 40 minutes. Reactions are subsequently stopped by the addition of 25 μl of ADP-Glo Reagent and incubating for an additional 40 minutes. The final luminescent signal used for kinase activity readout is produced by the addition of 45 μl of Kinase Detection Reagent (ADP-Glo kit, Promega) and incubating for 40 minutes. The luminescent signal is detected using a Victor 2 multilabel counter (Perkin Elmer) and the concentration of compound necessary to achieve inhibition of enzyme activity by 50% (IC50) is calculated using signals from an 8-point compound dilution series.

recombinant MNK2 = recombinant MNK2 (Homo sapiens (Human), UniProt Q9HBH9); test: MNK biochemical enzymatic assay (ADP-Glo), MNK2; conditions: 3 nM MNK2, 10 μM ATP
Procedure: as §1, §2

Phosphorylated eIF4E = test: peIF4E signaling cellular assay (CisBio HTRF); type: cell-based; conditions: 2 hrs incubation at 37° C.
Procedure: Phosphorylated eIF4E is assayed using the CisBio peIF4E HTRF® assay kit (CisBio, catalogue No. 64EF4PEG). Cells are plated in 96-well tissue-culture treated plate in appropriate growth medium (90 μL). Compounds (10×) are diluted using 3-fold serial dilutions in cell culture medium and added to cells. Plates are incubated for 2 hrs at 37° C. The cell supernatant is carefully removed either by aspirating supernatant or by flicking the plate. Immediately 50 μL of supplemented lysis buffer (1×) is added and incubated for at least 30 minutes at room temperature under shaking. After homogenization by pipeting up and down, 16 μL of cell lysate is transferred from the 96-well cell-culture plate to a 384-well small volume white plate. 4 μL of premixed antibody solutions (vol/vol) is prepared in the detection buffer and added. The plate is covered with a plate sealer and incubated overnight at room temperature. The fluorescence emissions at two different wavelengths are read (665 nm and 620 nm) on a Wallac Victor2. Emission ratios are converted into percent inhibitions and imported into GraphPad Prism software. […] IC50 values are determined using a nonlinear regression model available in GraphPad Prism 5.

Chain of recombinant MNK1 (Q9BUB5 whole entry): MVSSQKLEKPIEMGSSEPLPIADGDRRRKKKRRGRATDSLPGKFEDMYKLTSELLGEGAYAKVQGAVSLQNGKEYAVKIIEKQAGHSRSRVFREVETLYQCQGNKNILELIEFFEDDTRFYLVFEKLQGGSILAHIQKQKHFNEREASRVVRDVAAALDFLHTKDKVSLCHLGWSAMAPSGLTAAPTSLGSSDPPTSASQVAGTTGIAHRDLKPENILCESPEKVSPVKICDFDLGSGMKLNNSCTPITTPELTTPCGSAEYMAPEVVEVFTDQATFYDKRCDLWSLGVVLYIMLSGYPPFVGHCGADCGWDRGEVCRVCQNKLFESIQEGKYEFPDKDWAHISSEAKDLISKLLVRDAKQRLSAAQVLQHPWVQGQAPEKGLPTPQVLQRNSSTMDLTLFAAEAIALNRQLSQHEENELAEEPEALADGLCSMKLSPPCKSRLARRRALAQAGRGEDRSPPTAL
Chain of recombinant MNK2 (Q9HBH9 whole entry): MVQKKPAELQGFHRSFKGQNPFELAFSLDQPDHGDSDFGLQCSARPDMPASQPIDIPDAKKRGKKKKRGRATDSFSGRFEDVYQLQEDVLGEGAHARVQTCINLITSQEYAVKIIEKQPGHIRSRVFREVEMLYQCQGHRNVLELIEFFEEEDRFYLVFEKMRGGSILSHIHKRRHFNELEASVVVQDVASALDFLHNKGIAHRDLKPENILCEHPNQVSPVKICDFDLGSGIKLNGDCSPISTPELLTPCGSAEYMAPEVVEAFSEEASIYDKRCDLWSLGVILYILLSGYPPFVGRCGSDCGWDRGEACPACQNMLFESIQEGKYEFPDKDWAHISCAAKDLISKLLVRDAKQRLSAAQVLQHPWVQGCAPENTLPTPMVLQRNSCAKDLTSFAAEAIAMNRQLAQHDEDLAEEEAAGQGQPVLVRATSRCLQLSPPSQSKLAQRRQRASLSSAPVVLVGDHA

Compound: O=C1NC2(CCCCC2)n2c1c(Cl)cc(Nc1cnns1)c2=O [compound 3, 6′-((1,2,3-thiadiazol-5-yl)amino)-8′-chloro-2′H-spiro[cyclohexane-1,3′-imidazo[1,5-a]pyridine]-1′,5′-dione]
- MNK1 IC50 (recombinant MNK1): Inactive
- IC50 (recombinant MNK2): 0.01 to 0.1 µM
- IC50 (Phosphorylated eIF4E): 0.1 to 100 µM

Compound: O=C1NC2(CCCCC2)n2c1c(Cl)cc(Nc1cncs1)c2=O [compound 5, 8′-chloro-6′-(thiazol-5-ylamino)-2′H-spiro[cyclohexane-1,3′-imidazo[1,5-a]pyridine]-1′,5′-dione]
- IC50 (recombinant MNK1): 0.1 to 10 µM
- IC50 (recombinant MNK2): 0.01 to 0.1 µM

Compound: O=C1NC2(CCCCC2)n2c1c(Cl)cc(Nc1cnsn1)c2=O [compound 6, 6′-((1,2,5-thiadiazol-3-yl)amino)-8′-chloro-2′H-spiro[cyclohexane-1,3′-imidazo[1,5-a]pyridine]-1′,5′-dione]
- IC50 (recombinant MNK2): < 0.01 µM
- IC50 (Phosphorylated eIF4E): 0.1 to 100 µM

Compound: Cn1ncc(Nc2cc(Cl)c3n(c2=O)C2(CCCCC2)NC3=O)n1 [compound 7, 8′-chloro-6′-((2-methyl-2H-1,2,3-triazol-4-yl)amino)-2′H-spiro[cyclohexane-1,3′-imidazo[1,5-a]pyridine]-1′,5′-dione]
- IC50 (recombinant MNK2): < 0.01 µM
- IC50 (Phosphorylated eIF4E): 0.1 to 100 µM

Compound: O=C1NC2(CCCCC2)n2c1c(Cl)cc(Nc1nnco1)c2=O [compound 8, 6′-((1,3,4-oxadiazol-2-yl)amino)-8′-chloro-2′H-spiro[cyclohexane-1,3′-imidazo[1,5-a]pyridine]-1′,5′-dione]
- IC50 (recombinant MNK1): 0.1 to 10 µM
- IC50 (recombinant MNK2): 0.1 to 10 µM
- IC50 (Phosphorylated eIF4E): 0.1 to 100 µM

Compound: O=C1NC2(CCCCC2)n2c1c(Cl)cc(Nc1cn[nH]n1)c2=O [compound 9, 6′-((2H-1,2,3-triazol-4-yl)amino)-8′-chloro-2′H-spiro[cyclohexane-1,3′-imidazo[1,5-a]pyridine]-1′,5′-dione]
- IC50 (recombinant MNK1): 0.01 to 0.1 µM
- IC50 (recombinant MNK2): < 0.01 µM
- IC50 (Phosphorylated eIF4E): 0.1 to 100 µM

Compound: O=C1NC2(CCCCC2)n2c1c(Cl)cc(Nc1ncncn1)c2=O [compound 11, 6′-((1,3,5-triazin-2-yl)amino)-8′-chloro-2′H-spiro[cyclohexane-1,3′-imidazo[1,5-a]pyridine]-1′,5′-dione]
- IC50 (recombinant MNK2): < 0.01 µM
- IC50 (Phosphorylated eIF4E): 0.01 to 0.1 µM

Compound: Nc1cc(Nc2cc(Cl)c3n(c2=O)C2(CCCCC2)NC3=O)ccn1 [compound 13, 6′-((2-aminopyridin-4-yl)amino)-8′-chloro-2′H-spiro[cyclohexane-1,3′-imidazo[1,5-a]pyridine]-1′,5′-dione]
- IC50 (recombinant MNK2): 0.01 to 0.1 µM
- IC50 (Phosphorylated eIF4E): 0.1 to 100 µM

Second part, the compound after the results:

- IC50 (recombinant MNK1): 0.1 to 10 µM
- IC50 (recombinant MNK2): 0.01 to 0.1 µM
- IC50 (Phosphorylated eIF4E): 0.1 to 100 µM
Compound: O=C1NC2(CCCCC2)n2c1c(Cl)cc(Nc1nncs1)c2=O [1F, 6′-((1,3,4-thiadiazol-2-yl)amino)-8′-chloro-2′H-spiro[cyclohexane-1,3′-imidazo[1,5-a]pyridine]-1′,5′-dione]

- IC50 (recombinant MNK1): 0.01 to 0.1 µM
- IC50 (recombinant MNK2): < 0.01 µM
- IC50 (Phosphorylated eIF4E): 0.1 to 100 µM
Compound: O=C1NC2(CCCCC2)n2c1c(Cl)cc(Nc1ncns1)c2=O [2F, 6′-((1,2,4-thiadiazol-5-yl)amino)-8′-chloro-2′H-spiro[cyclohexane-1,3′-imidazo[1,5-a]pyridine]-1′,5′-dione]

- IC50 (recombinant MNK1): 0.1 to 10 µM
- IC50 (recombinant MNK2): 0.01 to 0.1 µM
Compound: O=C1NC2(CCCCC2)n2c1c(Cl)cc(Nc1ncn[nH]1)c2=O [4F, 6′-((1H-1,2,4-triazol-5-yl)amino)-8′-chloro-2′H-spiro[cyclohexane-1,3′-imidazo[1,5-a]pyridine]-1′,5′-dione]
